Data on 20 molecules can be found in patent US11578071B2, “Preparation of pyrazolo[3,4-B]pyridines as antimalarials” (University of Kentucky Research Foundation, priority 2019, dated 2023).

In series [1] the test system is erythrocytes infected with the 3D7 strain. Put plainly: FACS Killing Rate Assay. Format: cell-based, Plasmodium falciparum. Further details: % Survival at 0 h: concentration or dose not given beside the values. Particulars: for % Survival (24 h) / % Survival (48 h) / % Survival at 0 h: 3D7; for % Survival (24 h): 24 h treatment at 10× IC50; for % Survival (24 h) / % Survival (48 h): mean ± SD of two measurements; for % Survival (48 h): 48 h treatment at 10× IC50; for % Survival at 0 h: treatment time 0 h; for killing profile: in words, compared with chloroquine, pyrimethamine, atovaquone, artesunate. Here is the method: After treatment, the compound is removed and the culture is diluted (⅓^rd dilution) using fresh erythrocytes (2% hematocrit) previously labeled with CFDA-SE (carboxylfluorescein diacetate succinimidyl ester, Life Technologies). […] Samples were analyzed using the Attune N×T software package.

Series [2] has as its system P. falciparum 3D7 gametocytes. The series is described as follows: Gametocyte EC50 determination. Format: cell-based. Particulars: Plasmodium falciparum. Here is the method: Asexual cultures of P. falciparum 3D7 parasites were used to seed gametocyte cultures at 1% parasitemia and 4% hematocrit as previously described. Culture medium (RPMI medium with 25 mM HEPES, 50 mg/L hypoxanthine, 2 g/L sodium bicarbonate and 10% human serum) was replaced daily for at least 14 day with all solutions, pipettes and work surfaces treated at 37° C. Typical cultures follow the pattern of asexual parasitemia rising to a peak and crashing at days 4-5, with stage II gametocytes visible at day 7, stage III visible at day 9, stage IV visible at day 11, and stage V visible at day 14 with high levels of exflagellation.
To determine EC50 values, the number of exflagellation centers per field, mean oocyst intensity and prevalence of infection were normalized to the respective DMSO treated control and % inhibition calculated. Tested compounds were prepared as a DMSO solutions from 25 μM to 0.026 μM across 22 points. Percentage inhibition data obtained from each individual parameter was fitted to a four-parameter logistic equation with variable slope using GraphPad Prism 6.07 for which compound concentrations were first transformed to their respective log10 values. The data were then fitted using these transformed values without defining constraints.

The test system of series [3] is HepG2-A16-CD81EGFP cells. The series is described as follows: HepG2 Cytotoxicity Bioluminescence Assay. It is filed as cell-based. The settings on record: Homo sapiens, 48 h, mean ± SD of two measurements.
Protocol: HepG2-A16-CD81EGFP cells which were stably transformed to express a GFP-CD81 fusion protein were cultured at 37° C. and 5% CO2 in DMEM supplemented with 10% FBS, 0.29 mg/mL glutamine, 100 units penicillin and 100 μg/mL of streptomycin (Invitrogen, Carlsbad, USA). […] 50 nL of compound in DMSO (0.5% final DMSO concentration per well) was transferred with an Acoustic Transfer System (Biosero) in to the assay plates (50 μM final concentration). […] To maintain similar conditions, the 5 μL additional volume was accomplished by using the same screening media with no infected sporozoites. No centrifugation was performed using only the media addition. […] The HepG2 cytotoxicity was assessed to determine the number of viable cells in culture based on quantitation of the ATP present, which signals the presence of metabolically active cells. […] Immediately after the addition of the CellTiterGlo, the plates were read by an EnVision Multilabel plate reader (PerkinElmer) using a luminescence protocol. IC50 values were obtained using measured bioluminescence intensity and a non-linear variable slope protocol in CDD Vault, an online collaborative drug discovery informatics program.
The test system of series [4] is P. berghei luciferase sporozoites in HepG2-A16-CD81EGFP cells. Put plainly: Plasmodium Berghei Luciferase Liver Stage Bioluminescence Assay. Particulars: in words. Format: cell-based.
Protocol: HepG2-A16-CD81EGFP cells which were stably transformed to express a GFP-CD81 fusion protein were cultured at 37° C. and 5% CO2 in DMEM supplemented with 10% FBS, 0.29 mg/mL glutamine, 100 units penicillin and 100 μg/mL of streptomycin (Invitrogen, Carlsbad, USA). […] Freshly dissected P. berghei luciferase sporozoites were re-suspended in media and their concentration adjusted to 200 sporozoites/μL. […] After incubation, the plates were assessed by testing the luciferase expression. This was done by removing the media by spinning the inverted plates at 150 g for 1 minute. 2 μL of BrightGlo (Promega) was dispensed with the MicroFlo liquid handler (BioTek) into the emptied 1536 wells. The plates were held for at least 2 minutes with the Bright-Glo reagent in the wells (per manufacturer instructions) for the process to occur. The plates were then loaded and read by an EnVision Multilabel plate reader (PerkinElmer) using a luminescence protocol. IC50 values were obtained using measured bioluminescence intensity and a non-linear variable slope protocol in CDD Vault, an online collaborative drug discovery informatics program.

Turning to `CCc1nc(N)nc(N)c1-c1ccc(Cl)cc1` [Pyrimethamine], in series [1], the “% Survival (24 h)” value is 56.37 ± 2.55%, the “% Survival (48 h)” value is 16.02 ± 4.36% and the “% Survival at 0 h” value is on record as 100%.
In general, melting point refers to the temperature, or range, at which the solid turns liquid. `Cc1nn(-c2ccccc2)c2nc(-c3ccc(C(F)(F)F)cc3)c(C#N)c(-c3ccccc3O)c12` [Compound 30, 4-(2-hydroxyphenyl)-3-methyl-1-phenyl-6-[4-(trifluoromethyl)phenyl]-1H-pyrazolo[3,4-b]pyridine-5-carbonitrile] registered a melting point of 254 to 256 °C.
Still for that read-out and setting: under `CCc1ccc(-c2nc3c(c(C)nn3-c3ccccc3)c(-c3ccccc3Br)c2C#N)cc1` [Compound 9, 4-(2-Bromophenyl)-6-(4-ethylphenyl)-3-methyl-1-phenyl-1H-pyrazolo[3,4-b]pyridine-5-carbonitrile] stands 208 to 209 °C; under `CCc1ccc(-c2nc3c(c(C)nn3-c3ccccc3)c(-c3ccccc3F)c2C#N)cc1` [Compound 11, 6-(4-Ethylphenyl)-4-(2-fluorophenyl)-3-methyl-1-phenyl-1H-pyrazolo[3,4-b]pyridine-5-carbonitrile], 197 to 199 °C.
For `CCc1ccc(-c2nc3c(c(C)nn3-c3ccccc3)c(-c3ccccc3I)c2C#N)cc1` [Compound 8, 6-(4-Ethylphenyl)-4-(2-iodophenyl)-3-methyl-1-phenyl-1H-pyrazolo[3,4-b]pyridine-5-carbonitrile], the melting point was in the range of 205 to 207 °C.
As to `O=C1C(O)=C([C@H]2CC[C@H](c3ccc(Cl)cc3)CC2)C(=O)c2ccccc21` [Atovaquone], in series [1], the “% Survival (24 h)” value came to 78.96 ± 3.89%, the “% Survival (48 h)” value was found to be 39.89 ± 4.37% and the “% Survival at 0 h” value amounted to 100%.
In turn, `CCc1ccc(-c2nc3c(c(C)nn3-c3ccccc3)c(-c3ccccc3C(F)(F)F)c2C#N)cc1` [Compound 15, 6-(4-Ethylphenyl)-3-methyl-1-phenyl-4-[2-(trifluoromethyl)phenyl]-1H-pyrazolo[3,4-b]pyridine-5-carbonitrile] returned a melting point of 193 to 195 °C.
On to `CCN(CC)CCCC(C)Nc1ccnc2cc(Cl)ccc12` (stereo not drawn) [Chloroquine], for which, in series [1], the “% Survival (24 h)” value was found to be 18.69 ± 7.34%, the “% Survival (48 h)” value is given as 9.21 ± 2.08% and the “% Survival at 0 h” value is recorded as 100%.
`Cc1nn(-c2ccccc2)c2nc(-c3ccc([N+](=O)[O-])cc3)c(C#N)c(-c3ccccc3O)c12` [Compound 35, 4-(2-hydroxyphenyl)-3-methyl-6-(4-nitrophenyl)-1-phenyl-1H-pyrazolo[3,4-b]pyridine-5-carbonitrile] came in with a melting point of 257 to 258 °C.
A word on the EC50: it is the concentration at which the effect is half-maximal. Regarding `Cc1nn(-c2ccccc2)c2nc(-c3ccc(C(C)(C)C)cc3)c(C#N)c(-c3ccccc3O)c12` [Compound 27, 6-(4-tert-butylphenyl)-4-(2-hydroxyphenyl)-3-methyl-1-phenyl-1H-pyrazolo[3,4-b]pyridine-5-carbonitrile], in series [1], the “% Survival at 0 h” value was 100% and the killing profile entry is given as “moderate killing profile”. In series [2], the EC50 was greater than 25 µM.
With `CCc1ccc(-c2nc3c(c(C)nn3-c3ccccc3)c(-c3ccccc3OC)c2C#N)cc1` [Compound 16, 6-(4-Ethylphenyl)-4-(2-methoxyphenyl)-3-methyl-1-phenyl-1H-pyrazolo[3,4-b]pyridine-5-carbonitrile], the melting point fell in the range of 196 to 198 °C.
Still for that read-out and setting: under `CCc1ccc(-c2nc3c(c(C)nn3-c3ccccc3)c(-c3ccccc3C)c2C#N)cc1` [Compound 12, 6-(4-Ethylphenyl)-3-methyl-4-(2-methylphenyl)-1-phenyl-1H-pyrazolo[3,4-b]pyridine-5-carbonitrile] stands 203 to 204 °C; under `Cc1nn(-c2ccccc2)c2nc(-c3ccc(I)cc3)c(C#N)c(-c3ccccc3O)c12` [Compound 33, 4-(2-hydroxyphenyl)-6-(4-iodophenyl)-3-methyl-1-phenyl-1H-pyrazolo[3,4-b]pyridine-5-carbonitrile], 289 to 291 °C.
In the case of `C[C@H]1[C@H](OC(=O)CCC(=O)O)O[C@@H]2O[C@@]3(C)CC[C@H]4[C@H](C)CC[C@@H]1[C@@]24OO3` [Artesunate], in series [1], the “% Survival (24 h)” value is recorded as 17.50 ± 3.68%, the “% Survival (48 h)” value is given as 6.44 ± 0.51% and the “% Survival at 0 h” value was determined as 100%.
As to `CCc1ccc(-c2nc3c(c(C)nn3-c3ccccc3)c(-c3ccccc3OC(F)(F)F)c2C#N)cc1` [Compound 17, 6-(4-Ethylphenyl)-3-methyl-1-phenyl-4-[2-(trifluoromethoxy)phenyl]-1H-pyrazolo[3,4-b]pyridine-5-carbonitrile], the EC50 in series [3] and in series [2] was greater than 25 µM in each case. Further, in series [4], the “potency against the liver stage of the parasite” value was “sub-micromolar potency”.
Turning to `CCc1ccc(-c2nc3c(c(C)nn3-c3ccccc3)c(-c3ccccc3Cl)c2C#N)cc1` [Compound 10, 4-(2-Chlorophenyl)-6-(4-ethylphenyl)-3-methyl-1-phenyl-1H-pyrazolo[3,4-b]pyridine-5-carbonitrile], the “% Survival at 0 h” value in series [1] turned out to be 100%. Besides, the killing profile result in series [1] is recorded as “slow killing profile”. For the same molecule, the EC50 in series [3] was greater than 50 µM; in series [2], greater than 25 µM. Also, the “potency against the liver stage of the parasite” value in series [4] is recorded as “sub-micromolar potency”.
As to `Cc1nn(-c2ccccc2)c2nc(-c3ccc(F)cc3)c(C#N)c(-c3ccccc3O)c12` [Compound 31, 6-(4-fluorophenyl)-4-(2-hydroxyphenyl)-3-methyl-1-phenyl-1H-pyrazolo[3,4-b]pyridine-5-carbonitrile], the melting point lay within 234 to 236 °C.
For the molecule `Cc1nn(-c2ccccc2)c2nc(-c3ccc(C#N)cc3)c(C#N)c(-c3ccccc3O)c12` [Compound 34, 6-(4-cyanophenyl)-4-(2-hydroxyphenyl)-3-methyl-1-phenyl-1H-pyrazolo[3,4-b]pyridine-5-carbonitrile], the melting point was in the range of 165 to 166 °C.
The molecule `Cc1nn(-c2ccccc2)c2nc(-c3ccc(Cl)cc3)c(C#N)c(-c3ccccc3O)c12` [Compound 32, 6-(4-chlorophenyl)-4-(2-hydroxyphenyl)-3-methyl-1-phenyl-1H-pyrazolo[3,4-b]pyridine-5-carbonitrile] displayed a melting point of 281 to 282 °C.
In the case of `CCc1ccc(-c2nc3c(c(C)nn3-c3ccccc3)c(-c3ccccc3C#N)c2C#N)cc1` [Compound 7, 4-(2-Cyanophenyl)-6-(4-ethylphenyl)-3-methyl-1-phenyl-1H-pyrazolo[3,4-b]pyridine-5-carbonitrile], the melting point was in the range of 201 to 203 °C.
